Our source for the IC50 values is patent publication US8530520B2, “Cycloalkyl-dione derivatives and methods of their use” (The Trustees Of The University Of Pennsylvania, priority 2011, dated 2013).

The assay concerns the target T1, human TP receptor (Homo sapiens, UniProt P21731).
T1 sequence (P21731 1-343): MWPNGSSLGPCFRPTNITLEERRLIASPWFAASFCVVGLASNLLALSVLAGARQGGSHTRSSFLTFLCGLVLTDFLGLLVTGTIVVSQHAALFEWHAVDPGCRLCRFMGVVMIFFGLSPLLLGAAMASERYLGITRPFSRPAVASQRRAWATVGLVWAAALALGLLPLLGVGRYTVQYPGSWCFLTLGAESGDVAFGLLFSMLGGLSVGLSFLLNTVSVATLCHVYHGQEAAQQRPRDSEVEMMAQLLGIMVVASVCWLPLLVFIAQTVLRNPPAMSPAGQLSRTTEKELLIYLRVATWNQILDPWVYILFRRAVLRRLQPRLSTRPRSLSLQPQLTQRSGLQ
Put plainly: biochemical.
Turning to `O=C1C=C(O)C(Cc2cccc(CCNS(=O)(=O)c3ccc(Cl)cc3)c2)C1` (stereo not drawn) [Compound 41, 4-Chloro-N-(3-((2-hydroxy-4-oxocyclopent-2-en-1-yl)methyl)phenethyl)benzenesulfonamide], half-maximal inhibition (IC50) was put at 203 nM. `CC1=C(O)C(Cc2cccc(CCNS(=O)(=O)c3ccc(Cl)cc3)c2)CC1=O` (stereo not drawn) [Compound 42, 4-Chloro-N-(3-((2-hydroxy-3-methyl-4-oxocyclopent-2-en-1-yl)methyl)phenethyl)-benzenesulfonamide] registered an IC50 of 328 nM. To `O=C1CCC(O)=C1Cc1cccc(CCNS(=O)(=O)c2ccc(Cl)cc2)c1` [Compound 50, 4-Chloro-N-(3-((2-hydroxy-5-oxocyclopent-1-en-1-yl)methyl)phenethyl)benzenesulfonamide] belongs 11400 nM. For `O=S(=O)(NCCc1cccc(CCCO)c1)c1ccc(Cl)cc1` [Compound 59], the half-maximal inhibitory concentration (IC50) is above 10000 nM.

As for `O=S(=O)(NCCc1cccc(CCc2nnn[nH]2)c1)c1ccc(Cl)cc1` [Compound 60], the half-maximal inhibitory concentration (IC50) was determined as 331 nM. For the compound `O=c1c(O)c(NCc2cccc(CCNS(=O)(=O)c3ccc(Cl)cc3)c2)c1=O` [Compound 61], the IC50 amounted to 359 nM.

The IC50 is the midpoint of a concentration-inhibition curve. Lower therefore signals higher potency.
